A word on the solubility: it is the concentration that dissolves in the medium under given conditions.

A short description of series [1]: Aqueous stability of CCI-779. Type of series: physicochemical. To be noted: cleavage of a lactone bond, forming ring opened seco-CCI-779. The method, then: (§1) One obstacle towards the formulation of CCI-779 is its poor aqueous solubility (less than 1 μg/ml), which makes its bioavailability low.
Another series concerns human tumor xenografts. The following applies: nude mice, diverse histological types; cited from earlier work.
Another series has as its system tumor cells. The following applies: histologically diverse tumor cells; cited from earlier work.
Series [2] in a line: Aqueous solubility of CCI-779. The class given is physicochemical. To be noted: water (aqueous). The method, then:
as §1

Bounds are passed on as bounds.

`CO[C@H]1C[C@@H]2CC[C@@H](C)[C@@](O)(O2)C(=O)C(=O)N2CCCC[C@H]2C(=O)O[C@H]([C@H](C)C[C@@H]2CC[C@@H](OC(=O)C(C)(CO)CO)[C@H](OC)C2)CC(=O)[C@H](C)/C=C(\C)[C@@H](O)[C@@H](OC)C(=O)[C@H](C)C[C@H](C)/C=C/C=C/C=C/1C` [CCI-779, rapamycin 42-ester with 3-hydroxy-2-(hydroxymethyl)-2-methylpropionic acid]: the aqueous stability entry in series [1] is on record as “exhibits aqueous instability”. In the series on human tumor xenografts, the “activity against human tumor xenografts” value is on record as “has activity against human tumor xenografts of diverse histological types”. Also, in the series on tumor cells, the “inhibition of tumor cell growth in vitro” value is reported as “inhibit the growth of a number of histologically diverse tumor cells”. Moreover, in series [2], the solubility is < 1 µg/mL.
